Counter-ions that a name gives are not always drawn.
Tested on: severe hypotension induced by bleeding (hypovolemic shock), intact rats
Experiment: Hypovolemic shock by bleeding in intact rats: mean arterial pressure and survival
Assay type: in vivo, Wistar rats
Experimental: Intact and adrenalectomized female Wistar rats (Nossan, Correzzano, Milano, Italy) weighing 250 to 300 g, and intact male Beagle dogs (S. Morini, S. Polo d'Enza, Reggio Emilia, Italy) weighing 10 to 12 kg were used. Following anesthetization and heparinization a common carotid artery and an iliac vein were cannulated in rats, while in dogs a femoral artery and vein were used. Arterial blood pressure was recorded by means of a pressure transducer (Statham P23 Db) connected to a polygraph (Battaglia-Rangoni, Bologna, Italy). In some rats, trachea was cannulated and respiration was recorded by means of a transducer (Statham 10272) connected to the same polygraph. Hypovolemic shock was produced by intermittently withdrawing blood from the venous catheter until mean arterial pressure fell to 16-30 mm Hg. In rats, the volume of blood removed was 2-2.5 ml per 100 g of body weight and approximated to, or even exceeded, 50% of the estimated total blood volume; in dogs, the volume of blood removed was 50-60 ml per kg of body weight. Following bleeding and mean blood pressure stabilization in the range of 16-30 mm Hg, animals were given intravenous bolus of either ACTH (1-24) or naloxone.HCl.

SMILES: C=CCN1CC[C@]23c4c5ccc(O)c4O[C@H]2C(=O)CC[C@@]3(O)[C@H]1C5 [Naloxone.HCl, naloxone.HCl]
- Mean arterial pressure before bleeding (intact rats (5), Naloxone.HCl 1 μg/kg i.v. group, baseline before treatment, m ± S.E.): 64,60 ± 4,70 mm Hg
- Mean arterial pressure after bleeding (intact rats (5), Naloxone.HCl 1 μg/kg i.v. group, before treatment, m ± S.E.): 22,00 ± 3,15 mm Hg
- No. of deaths 60 min. after treatment (intact rats (5), bled, 1 μg/kg i.v.): 0
- Mean arterial pressure 15-30 min. after treatment (intact rats (5), bled, 1 μg/kg i.v., m ± S.E.): 58,20 ± 6,12 mm Hg
- Effect on blood pressure after bleeding (rats, bled, 1 mg/kg i.v., within 30 minutes): completely restored blood pressure

Reference: US5380710A, “Pharmaceutical compositions containing ACTH (1-24) for the therapy of shock conditions and respiratory and cardiocirculatory insufficiences” (priority 1985, dated 1995)
